Columns and labels:
[1] = test system: d(G5C5)2 (DNA, duplex) GGGGGCCCCC; experiment: luminescence titration at 630 nm, Bard fit; conditions: K+ (50 mM potassium phosphate), pH 7, per base
[2] = test system: polyG (polyguanylic acid) (RNA, polymer) G; experiment: luminescence quenching and UV-vis hypochromism titration; conditions: qualitative; enantiomer not stated
[3] = test system: hTel (hybrid-1 quadruplex, K+ stabilized) (DNA, G4) TTGGGTTAGGGTTAGGGTTAGGGA; experiment: luminescence titration at 630 nm, Bard fit; conditions: K+ (50 mM potassium phosphate), pH 7, per base

K b ([1]; binding-site size 2.1(±0.1)): 7.8(±0.8) × 10^5 M^-1
K b ([1]; binding-site size 2.2(±0.1)): 1.3(±0.2) × 10^6 M^-1
binding [2]: yes
K b ([3]; binding-site size 1.4(±0.1)): 5.7(±0.2) × 10^5 M^-1
K b ([3]; binding-site size 2.7(±0.1)): 2.7(±0.2) × 10^5 M^-1
SMILES: N#Cc1cccc2nc3c4cccnc4c4ncccc4c3nc12.[Ru+2].c1cnc2c(ccc3nccnc32)n1.c1cnc2c(ccc3nccnc32)n1
